Source: patent US9187455B2, “Substituted pyridazines as PDE10A inhibitors” (Hoffmann-La Roche Inc., priority 2009, dated 2015)

Biological target: T1, PDE10A2 (Homo sapiens, UniProt Q9Y233)
T1 construct: residues serine 449 to aspartate 789; His6 (H6) with Gateway linker and thrombin cleavage site (N, cleaved yes); made in house; host or cells: E. coli BL21(DE3) pLysS
Assay: PDE10A2 Scintillation Proximity Assay (SPA), [3H]-cGMP hydrolysis
Assay type: biochemical
Conditions: catalytic domain of human PDE10A2 (S449-D789), 0.25 nM enzyme, 50 nM cGMP + 50 nM [3H]-cGMP, 30 minutes at room temperature; read-out: PDE10A2 inhibition IC50
Experimental: The following tests were carried out in order to determine the activity of the compounds of the present invention. PDE10 activity of the compounds of the present invention is determined using a Scintillation Proximity Assay (SPA)-based method similar to the one previously described (Fawcett, L. et al., ProcNatl Acad Sci USA (2000) 97(7):3702-3707).
PDE10A1 and PDE10A2 are two splice variants of PDE10A. There are these 2 splice variants known, which differ in the N-terminal part of the protein. The catalytic domains of PDE10A1 and PDE10A2 are identical. The assay for PDE10A2 described below is therefore also representative for PDE10A1 and also for PDE10A in general.
The PDE10A2 assay was performed in a two step procedure in 96-well micro titer plates. The reaction mixture of 80 μl contained 20 mM HEPES/10 mM MgCl2/[…] (pH 7.5), 50 nM cGMP (Sigma) and 50 nM [^3H]-cGMP (GE Healthcare), 0.25 nM PDE10A2 with or without a specific test compound. A range of concentrations of the potential inhibitor was used to generate data for calculating the concentration of inhibitor resulting in 50% of the effect (e.g. IC50, the concentration of the competitor inhibiting PDE10A2 activity 50%). Non-specific activity was tested without the enzyme. The reaction was initiated by addition of the substrate solution (cGMP and [^3H]-cGMP) and allowed to progress for 30 minutes at room temperature. The reaction was terminated by transferring 50 μl of the reaction mixture into an OptiPlate (Perkin Elmer) containing 25 μl of YSi-SPA scintillation beads (GE Healthcare) in 18 mM zinc sulphate solution (stop reagent). After 1 h under shaking, the plate was centrifuged one minute at 1000 rpm to allow beads to settle. Afterwards, radioactive counts were measured on a Perkin Elmer TopCount Scintillation plate reader.
The catalytic domain of human PDE10A2, residues serine 449 to aspartate 789, was amplified by PCR using cDNA (Origene) and the oligonucleotides 5′-GGGGACAAGTTTGT […]-3′ (with AttB1 recombination site in bold and thrombin protease cleavage site in italics) and 5′-[…]-3′ (with AttB2 recombination site in bold) which conferred Gateway recombination sites. The PCR product was used in a BP recombination reaction with pDONR221 to generate pENTR Thm-PDE10A2(S449-D789) which was DNA sequence verified and then used in an LR recombination reaction with a Gateway modified version of pET11a. The resulting expression vector, placT7.2H6-(gwl)-Thm-PDE10A2(S449-D789) was DNA sequence confirmed and transformed into E. coli strain BL21(DE3) pLysS and recombinant protein was produced in TB medium at 20° C. by induction to a final IPTG concentration of 0.5 mM at an optical density of 1.0 at 600 nm for 20 hours. About 30% of the protein was in the soluble fraction of the cell homogenate. The protein was purified using sequential chromatography on Ni-NTA and HiTrapQ/HiTrapS. After thrombin digest at room temperature a HiTrapChelating/HiTrap Benzamindin chromatography removed impurities, uncleaved protein and thrombin. Final purification of PDE10A2(S449-D789) was performed on a Superdex 75 size exclusion chromatography equilibrated with 25 mM HEPES pH 8.4, 0.15 M NaCl. The yield of pure protein was 2 mg/liter of culture volume is relatively low. The purity of the protein was >95%, monomeric and monodisperse as shown by SDS-PAGE, HPLC and analytical ultracentrifugation.

T1 sequence (Q9Y233 715-1055): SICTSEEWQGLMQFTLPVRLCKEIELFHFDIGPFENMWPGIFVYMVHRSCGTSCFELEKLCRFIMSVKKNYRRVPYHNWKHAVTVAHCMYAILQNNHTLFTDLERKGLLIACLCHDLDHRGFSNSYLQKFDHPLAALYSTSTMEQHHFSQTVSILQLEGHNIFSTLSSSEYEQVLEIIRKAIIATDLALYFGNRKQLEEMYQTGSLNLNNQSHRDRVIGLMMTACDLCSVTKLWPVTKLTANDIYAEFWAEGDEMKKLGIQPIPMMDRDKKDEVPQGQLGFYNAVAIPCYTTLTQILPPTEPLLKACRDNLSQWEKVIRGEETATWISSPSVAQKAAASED

SMILES | IC50
O=c1ccn(-c2ccnc(Cl)c2)nc1-c1ccnn1-c1ccnc2cc(Cl)ccc12 [Example 69, 1-(2-Chloro-pyridin-4-yl)-3-[2-(7-chloro-quinolin-4-yl)-2H-pyrazol-3-yl]-1H-pyridazin-4-one] | 57 nM
O=c1ccn(-c2ccncc2)nc1-c1ccnn1-c1ccccc1Cl [Example 12, 3-[2-(2-Chloro-phenyl)-2H-pyrazol-3-yl]-1-pyridin-4-yl-1H-pyridazin-4-one] | 228 nM
N#Cc1cccc(-n2nccc2-c2nn(-c3ccncc3)ccc2=O)c1 [Example 3, 3-[5-(4-Oxo-1-pyridin-4-yl-1,4-dihydro-pyridazin-3-yl)-pyrazol-1-yl]-benzonitrile] | 319 nM
O=c1ccn(-c2cncc(Cl)c2)nc1-c1ccnn1-c1ccnc2ccc(F)cc12 [Example 52, 1-(5-Chloro-pyridin-3-yl)-3-[2-(6-fluoro-quinolin-4-yl)-2H-pyrazol-3-yl]-1H-pyridazin-4-one] | 177 nM
O=c1ccn(-c2ccc(C(F)(F)F)nc2)nc1-c1ccnn1-c1cccc2cnccc12 [Example 81, 3-(2-Isoquinolin-5-yl-2H-pyrazol-3-yl)-1-(6-trifluoromethyl-pyridin-3-yl)-1H-pyridazin-4-one] | 107 nM
O=c1ccn(-c2cncc(Cl)c2)nc1-c1ccnn1-c1ccnc2cc(Cl)ccc12 [Example 70, 1-(5-Chloro-pyridin-3-yl)-3-[2-(7-chloro-quinolin-4-yl)-2H-pyrazol-3-yl]-1H-pyridazin-4-one] | 253 nM
CS(=O)(=O)c1cncc(-n2ccc(=O)c(-c3ccnn3-c3cccc(F)c3)n2)c1 [Example 45, 3-[2-(3-Fluoro-phenyl)-2H-pyrazol-3-yl]-1-(5-methanesulfonyl-pyridin-3-yl)-1H-pyridazin-4-one] | 259 nM
O=c1ccn(-c2ccc(C(F)(F)F)nc2)nc1-c1ccnn1-c1ccccc1F [Example 75, 3-[2-(2-Fluoro-phenyl)-2H-pyrazol-3-yl]-1-(6-trifluoromethyl-pyridin-3-yl)-1H-pyridazin-4-one] | 120 nM
O=c1ccn(-c2ccc3cnccc3c2)nc1-c1ccnn1-c1ccccc1F [Example 100, 3-[2-(2-Fluoro-phenyl)-2H-pyrazol-3-yl]-1-isoquinolin-6-yl-1H-pyridazin-4-one] | 31 nM
O=c1ccn(-c2ccncc2)nc1-c1ccnn1-c1ccccc1F [Example 4, 3-[2-(2-Fluoro-phenyl)-2H-pyrazol-3-yl]-1-pyridin-4-yl-1H-pyridazin-4-one] | 115 nM
N#Cc1cc(-n2ccc(=O)c(-c3ccnn3-c3ccccc3F)n2)ccn1 [Example 96, 4-{3-[2-(2-Fluoro-phenyl)-2H-pyrazol-3-yl]-4-oxo-4H-pyridazin-1-yl}-pyridine-2-carbonitrile] | 308 nM
O=c1ccn(-c2cccnc2)nc1-c1ccnn1-c1ccnc2ccc(F)cc12 [Example 50, 3-[2-(6-Fluoro-quinolin-4-yl)-2H-pyrazol-3-yl]-1-pyridin-3-yl-1H-pyridazin-4-one] | 87 nM
O=c1ccn(-c2cncc(Cl)c2)nc1-c1ccnn1-c1cccc2ncccc12 [Example 60, 1-(5-Chloro-pyridin-3-yl)-3-(2-quinolin-5-yl-2H-pyrazol-3-yl)-1H-pyridazin-4-one] | 78 nM
Cc1cc(-n2ccc(=O)c(-c3ccnn3-c3ccccc3F)n2)ccn1 [Example 93, 3-[2-(2-Fluoro-phenyl)-2H-pyrazol-3-yl]-1-(2-methyl-pyridin-4-yl)-1H-pyridazin-4-one] | 206 nM
O=c1ccn(-c2ccnc(Cl)c2)nc1-c1ccnn1-c1cccc2ncccc12 [Example 58, 1-(2-Chloro-pyridin-4-yl)-3-(2-quinolin-5-yl-2H-pyrazol-3-yl)-1H-pyridazin-4-one] | 89 nM
O=c1ccn(-c2ccncc2)nc1-c1ccnn1-c1cccc2ccncc12 [Example 27, 3-(2-Isoquinolin-8-yl-2H-pyrazol-3-yl)-1-pyridin-4-yl-1H-pyridazin-4-one] | 126 nM
